Measurements taken from patent publication US20260184707A1, “PHARMACEUTICAL COMPOUNDS FOR THE TREATMENT OF COMPLEMENT MEDIATED DISORDERS” (ALEXION PHARMACEUTICALS, INC., priority 2022, published 2026).

Target: T1, Human complement C1s enzyme (Homo sapiens, UniProt P09871)
T1 construct: purified from human serum, Complement Technology, Inc; purchased Complement Technology, Inc; host or cells: human serum (plasma-derived native protein)
T1 sequence (P09871 438-688 limits assumed): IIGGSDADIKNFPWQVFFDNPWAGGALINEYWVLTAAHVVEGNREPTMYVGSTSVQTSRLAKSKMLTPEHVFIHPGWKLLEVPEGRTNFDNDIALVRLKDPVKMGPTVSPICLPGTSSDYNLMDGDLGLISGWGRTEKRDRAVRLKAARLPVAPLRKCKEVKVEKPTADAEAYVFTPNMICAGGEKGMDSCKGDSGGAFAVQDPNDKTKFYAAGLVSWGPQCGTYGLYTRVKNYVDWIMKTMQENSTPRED
T1 sequence (P09871 16-437 partner limits assumed): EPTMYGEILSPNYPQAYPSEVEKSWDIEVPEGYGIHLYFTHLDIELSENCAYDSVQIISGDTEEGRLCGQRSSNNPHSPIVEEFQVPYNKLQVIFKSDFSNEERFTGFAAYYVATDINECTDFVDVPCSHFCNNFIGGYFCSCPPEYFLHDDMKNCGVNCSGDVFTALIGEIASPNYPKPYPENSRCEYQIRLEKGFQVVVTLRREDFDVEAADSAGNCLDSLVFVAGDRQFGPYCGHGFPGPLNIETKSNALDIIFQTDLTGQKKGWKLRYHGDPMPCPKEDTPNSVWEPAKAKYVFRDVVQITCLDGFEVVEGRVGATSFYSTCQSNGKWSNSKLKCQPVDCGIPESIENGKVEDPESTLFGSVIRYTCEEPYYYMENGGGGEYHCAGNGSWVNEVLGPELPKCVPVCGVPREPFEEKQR
Test: Human C1s enzyme assay
Type: biochemical
Conditions: human complement C1s enzyme 1.16 nM, substrate Z-L-Lys-SBzl, A405; read-out: IC50 (Stars)
Protocol: The […] values of the compounds of Table 1 were determined with the human C1s enzyme assay described below. Other standard complement assays are also available.
Human complement C1s enzyme (purified from human serum, Complement Technology, Inc.) at 1.16 nM final concentration was incubated with test compound at various concentrations for 5 min at room temperature in 50 mM Tris, 1 M NaCl, pH 7.5. A synthetic substrate Z-L-Lys-SBzl and DTNB (Ellman's reagent) were added to final concentrations of 100 μM each. Absorbance at 405 nm (A405) was recorded at 30 second intervals for […] using a microplate spectrophotometer. IC values were calculated by nonlinear regression of complement C1s reaction rates as a function of test compound concentration.
[…]; ND indicates a compound for which the IC50 value is not determined.

Row | SMILES | IC50 [nM]
1 | O=C(Cn1c(-c2ccccc2)ncc(NCc2ccc3c(c2)-c2ccccc2C3(F)F)c1=O)NCc1cc2cnccc2[nH]1 [Compound 22, N-((1H-pyrrolo[3,2-c]pyridin-2-yl)methyl)-2-(5-(((9,9-difluoro-9H-fluoren-3-yl)meth-yl)amino)-6-oxo-2-phenyl-pyrimidin-1(6H)-yl)acetamide] | < 100
2 | O=C(Cn1c(-c2ccccc2)ncc(NC(=O)CCC(=O)c2ccc(Oc3ccccc3)cc2)c1=O)NCc1cc2cnccc2[nH]1 [Compound 23, N-(1-(2-(((1H-pyrrolo[3,2-c]pyridin-2-yl)methyl)amino)-2-oxoethyl)-6-oxo-2-phenyl-1,6-dihydropyrimidin-5-yl)-4-oxo-4-(4-phenoxyphenyl)butanamide] | < 100
3 | O=C(Cn1c(-c2ccccc2)ncc(NC(=O)Cc2ccccc2)c1=O)NCc1cc2cnccc2[nH]1 [Compound 24, N-((1H-pyrrolo[3,2-c]pyridin-2-yl)methyl)-2-(6-oxo-2-phen-yl-5-(2-phenylacetamido)pyr-imidin-1(6H)-yl)acetamide] | < 100
4 | O=C(Cn1c(-c2ccccc2)ncc(-c2ccccc2)c1=O)NCc1cc2cnccc2[nH]1 [Compound 25, N-((1H-pyrrolo[3,2-c]pyridin-2-yl)methyl)-2-(6-oxo-2,5-diphenylpyrimidin-1(6H)-yl)acetamide] | > 1000
5 | O=C(Cn1c(-c2ccccc2)ncc(NC(=O)c2ccc(-c3ccccc3)cc2)c1=O)NCc1cc2cnccc2[nH]1 [Compound 29, N-(1-(2-(((1H-pyrrolo[3,2-c]pyridin-2-yl)methyl)amino)-2-oxoethyl)-6-oxo-2-phenyl-1,6-dihydropyrimidin-5-yl)-[1,1′-biphenyl]-4-carboxamide] | < 100
6 | O=C(Cn1c(-c2ccccc2)ncc(NCc2ccc3oc4ccccc4c3c2)c1=O)NCc1cc2cnccc2[nH]1 [Compound 32, N-((1H-pyrrolo[3,2-c]pyridin-2-yl)methyl)-2-(5-((dibenzo [b,d]furan-2-ylmethyl)amino)-6-oxo-2-phenylpyrimidin-1(6H)-yl)acetamide] | < 100
7 | O=C(Cn1c(-c2ccccc2)ncc(NCCCc2ccc(OC(F)F)cc2)c1=O)NCc1cc2cnccc2[nH]1 [Compound 34, N-((1H-pyrrolo[3,2-c]pyridin-2-yl)methyl)-2-(5-((3-(4-(difluoromethoxy)phenyl)prop-yl)amino)-6-oxo-2-phenyl-pyrimidin-1(6H)-yl)acetamide] | < 100
8 | O=C(Cn1c(-c2ccccc2)ncc(NCCNC(=O)c2ccc3oc4ccccc4c3c2)c1=O)NCc1cc2cnccc2[nH]1 [Compound 35, N-(2-((1-(2-(((1H-pyrrolo[3,2-c]pyridin-2-yl)methyl)amino)-2-oxoethyl)-6-oxo-2-phenyl-1,6-dihydropyrimidin-5-yl)amino)ethyl)dibenzo[b,d]furan-2-carboxamide] | < 100
9 | O=C(Cn1c(-c2ccccc2)ncc(NCCNC(=O)c2ccc3c(c2)-c2ccccc2C3(F)F)c1=O)NCc1cc2cnccc2[nH]1 [Compound 36, N-(2-((1-(2-(((1H-pyrrolo[3,2-c]pyridin-2-yl)methyl)amino)-2-oxoethyl)-6-oxo-2-phenyl-1,6-dihydropyrimidin-5-yl)-amino)ethyl)-9,9-difluoro-9H-fluorene-3-carboxamide] | < 100
10 | O=C(Cn1c(-c2ccccc2)ncc(NCCCc2ccc(C(=O)c3ccccc3)cc2)c1=O)NCc1cc2cnccc2[nH]1 [Compound 41, N-((1H-pyrrolo[3,2-c]pyridin-2-yl)methyl)-2-(5-((3-(4-benzo-ylphenyl)propyl)amino)-6-oxo-2-phenylpyrimidin-1(6H)-yl)-acetamide] | < 100
11 | CS(=O)(=O)c1ccc(CCCNc2cnc(-c3ccccc3)n(CC(=O)NCc3cc4cnccc4[nH]3)c2=O)cc1 [Compound 42, N-((1H-pyrrolo[3,2-c]pyridin-2-yl)methyl)-2-(5-((3-(4-(methylsulfonyl)phenyl)propyl)amino)-6-oxo-2-phenylpyrimidin-1(6H)-yl)acetamide] | < 100

Further lines, results first:

Row | IC50 [nM] | SMILES
12 | < 100 | O=C(Cn1c(-c2ccccc2)ncc(NCCCCc2ccc(Oc3ccccc3)cc2)c1=O)NCc1cc2cnccc2[nH]1 [Compound 21, N-((1H-pyrrolo[3,2-c]pyridin-2-yl)methyl)-2-(6-oxo-5-((4-(4-phenoxyphenyl)butyl)amino)-2-phenylpyrimidin-1(6H)-yl)acetamide]
13 | < 100 | O=C(Cn1c(-c2ccccc2)ncc(NCc2ccc3c(c2)oc2ccccc23)c1=O)NCc1cc2cnccc2[nH]1 [Compound 26, N-((1H-pyrrolo[3,2-c]pyridin-2-yl)methyl)-2-(5-((dibenzo[b,d]furan-3-ylmethyl)amino)-6-oxo-2-phenylpyrimidin-1(6H)-yl)acetamide]
14 | < 100 | O=C(Cn1c(-c2ccccc2)ncc(NCCCc2ccc(Cl)cc2)c1=O)NCc1cc2cnccc2[nH]1 [Compound 27, N-((1H-pyrrolo[3,2-c]pyridin-2-yl)methyl)-2-(5-((3-(4-chlorophenyl)propyl)amino)-6-oxo-2-phenylpyrimidin-1(6H)-yl)acetamide]
15 | < 100 | N#Cc1ccc(CCNc2cnc(-c3ccccc3)n(CC(=O)NCc3cc4cnccc4[nH]3)c2=O)cc1 [Compound 28, N-((1H-pyrrolo[3,2-c]pyridine-2-yl)methyl)-2-(5-((4-cyanophenethyl)amino)-6-oxo-2-phenylpyrimidin-1(6H)-yl)acetamide]
16 | > 1000 | O=C(Cn1c(-c2ccccc2)ncc(-c2nc3c(s2)CCCC3)c1=O)NCc1cc2cnccc2[nH]1 [Compound 30, N-((1H-pyrrolo[3,2-c]pyridin-2-yl)methyl)-2-(6-oxo-2-phenyl-5-(4,5,6,7-tetrahydrobenzo[d]thiazol-2-yl)pyrimidin-1(6H)-yl)acetamide]
17 | > 1000 | O=C(Cn1c(-c2ccccc2)ncc(NC(=O)OCc2ccccc2)c1=O)NCc1cc2cnccc2[nH]1 [Compound 31, benzyl (1-(2-(((1H-pyrrolo[3,2-c]pyridin-2-yl)methyl)amino)-2-oxoethyl)-6-oxo-2-phenyl-1,6-dihydropyrimidin-5-yl)-carbamate]
18 | < 100 | O=C(Cn1c(-c2ccccc2)ncc(NCCNC(=O)c2ccc(Oc3ccccc3)cc2)c1=O)NCc1cc2cnccc2[nH]1 [Compound 33, N-(2-((1-(2-(((1H-pyrrolo[3,2-c]pyridin-2-yl)methyl)amino)-2-oxoethyl)-6-oxo-2-phenyl-1,6-dihydropyrimidin-5-yl)amino)ethyl)-4-phenoxybenzamide]
19 | 100 to 1000 | O=C(Cn1c(-c2ccccc2)ncc(N2CCN(c3ccccc3)CC2)c1=O)NCc1cc2cnccc2[nH]1 [Compound 37, N-((1H-pyrrolo[3,2-c]pyridin-2-yl)methyl)-2-(6-oxo-2-phen-yl-5-(4-phenylpiperazin-1-yl)-pyrimidin-1(6H)-yl)acetamide]
20 | < 100 | O=C(Cn1c(-c2ccccc2)ncc(NC(=O)Cc2ccc(Oc3ccccc3)cc2)c1=O)NCc1cc2cnccc2[nH]1 [Compound 38, N-((1H-pyrrolo[3,2-c]pyridin-2-yl)methyl)-2-(6-oxo-5-(2-(4-phenoxyphenyl)acetamido)-2-phenylpyrimidin-1(6H)-yl)-acetamide]
21 | < 100 | O=C(Cn1c(-c2ccccc2)ncc(NCCCc2ccc(OC(F)(F)F)cc2)c1=O)NCc1cc2cnccc2[nH]1 [Compound 39, N-((1H-pyrrolo[3,2-c]pyridin-2-yl)methyl)-2-(6-oxo-2-phen-yl-5-((3-(4-(trifluoromethoxy)-phenyl)propyl)amino)pyrimi-din-1(6H)-yl)acetamide]
22 | < 100 | O=C(Cn1c(-c2ccccc2)ncc(NCCCc2ccc3oc4ccccc4c3c2)c1=O)NCc1cc2cnccc2[nH]1 [Compound 40, N-((1H-pyrrolo[3,2-c]pyridin-2-yl)methyl)-2-(5-((3-(dibenzo [b,d]furan-2-yl)propyl)amino)-6-oxo-2-phenylpyrimidin-1(6H)-yl)acetamide]
23 | > 1000 | O=C(Cn1c(-c2ccccc2)ncc(NCc2cc3ccc2CCc2ccc(cc2)CC3)c1=O)NCc1cc2cnccc2[nH]1 [Compound 43, 2-(5-((1,4(1,4)-dibenzena-cyclohexaphane-1(2)-ylmeth-yl)amino)-6-oxo-2-phenylpyr-imidin-1(6H)-yl)-N-((1H-pyr-rolo[3,2-c]pyridin-2-yl)meth-yl)acetamide]
24 | 100 to 1000 | O=C(Cn1c(-c2ccccc2)ncc(N2CCn3c(nnc3C(F)(F)F)C2)c1=O)NCc1cc2cnccc2[nH]1 [Compound 44, N-((1H-pyrrolo[3,2-c]pyridin-2-yl)methyl)-2-(6-oxo-2-phen-yl-5-(3-(trifluoromethyl)-5,6-dihydro-[1,2,4]triazolo[4,3-a]pyrazin-7(8H)-yl)pyrimidin-1(6H)-yl)acetamide]
